System: yeast genes (level of expressed mRNA)
Test: DNA chip analysis of expressed mRNA of yeast genes after 2 h culture with a toxic chemical substance
Assay type: cell-based, Saccharomyces cerevisiae S288C
Details: for The level of expressed mRNA in the presence of chemical substance/ (ratio to absence of chemical substance): stress protein genes, DNA chip; for The level of expressed mRNA in the presence of chemical substance/ in its absence, gene YPR184W: yeast gene YPR184W
Experimental: Yeast (Saccharomyces cerevtisiae S288C (α SUC2mal mel gap2 CUP1)) were cultured at 25° C. on YPD medium (yeast extract 1%, polypepton 2%, glucose 2%). One of toxic chemical substances was added to the cell at logarithmic growth phase, and the cell was further cultured for two hours. Cell was cultured without any chemical substance in the same condition, and was used as control. Concentrations of the chemical substances were defined to inhibit the growth of the yeast but not lead to death.
After the completion of cultivation, the culture was centrifuged to collect the cells. To the cells, sodium acetate buffer (50 mM sodium acetate, 10 mM EDTA, 1% SDS) was added, and the mixture was shaken at 65° C. for five minutes, followed by returning to room temperature, and obtaining the supernatant, which procedure was repeated two times. To the supernatant, ½ amount of a solution of phenol/chloroform was added, and the mixture was centrifuged to give a supernatant, which was added with an equal amount of chloroform, and the mixture was centrifuged to give a supernatant. To the supernatant, an equal amount of isopropanol containing 0.3 M sodium acetate was added, and the mixture was allowed to stand at room temperature for 30 minutes, after which the mixture was centrifuged to give a sediment of the whole RNAs. Seventy % ethanol was added to the sediment, and the mixture was again centrifuged to give a sediment, which was then dried and dissolved in water. mRNA was isolated from the whole RNAs as followings. In view of the fact that a poly A chain is attached to the 3′ terminus of mRNA, a polynucleotide having a poly T structure which was immobilized on the surface of latex beads was used to trap the mRNA, and then the mRNA was washed and eluted with spine column (Oligotex-dT30<Super>mRNA Purification Kit, Takara). Reverse transcription of the mRNA was conducted with a reverse transcriptase (Super Script II Reverse Transcriptase; catalogue No. 18064-014, GibcoBRL) using fluorescence-labeled nucleotides to give cDNAs that were introduced with Cy3-dUTP or Cy5-dUTP during the reverse transcription.
The labeled cDNAs were dissolved in TE buffer (10 mM Tris-HCl/1 mM EDTA, pH8.0), and the solution was dropped on the DNA chip containing the whole genes of yeast (DNA Chip Research Inc. Japan) so that the cDNAs were hybridized on the DNA chip at 65° C. for over 12 hours. The fluoresces intensity of the DNA chip was read with a scanner, and the ratio relative to the fluorescence intensity resulting from the absence of chemical substance was estimated as the following, which is shown in Tables 1 to 9: [formula]
In the Tables, “Intensity” indicated in the rightmost column is a value of the level of expressed mRNA of each gene in control cells as divided by the average level of the expressions of the whole genes.

COc1cc(CNC(=O)CCCCC=CC(C)C)ccc1O [(12), 8-methyl-N-vanillyl-6-nonenamide]
The level of expressed mRNA in the presence of chemical substance/The level of expressed mRNA in the absence of chemical substance (yeast gene YMR314W): 1.0
The level of expressed mRNA in the presence of chemical substance/The level of expressed mRNA in the absence of chemical substance (yeast gene YNL006W): 0.7
The level of expressed mRNA in the presence of chemical substance/The level of expressed mRNA in the absence of chemical substance (yeast gene YNL007C): 0.7
The level of expressed mRNA in the presence of chemical substance/ (in its absence), gene YNL025C (yeast gene YNL025C, ratio of DNA chip fluorescence intensity to that without chemical substance): 0.8
The level of expressed mRNA in the presence of chemical substance/ (ratio to absence of chemical substance) (yeast gene YNL064C): 0.8
The level of expressed mRNA in the presence of chemical substance/ (ratio to absence), gene YNL073W (yeast gene YNL073W, mitochondria-located protein genes, 2 h culture with chemical): 0.7
The level of expressed mRNA in the presence of chemical substance/The level of expressed mRNA in the absence of chemical substance (yeast gene YNL093W): 1.1
The level of expressed mRNA in the presence of chemical substance/ (in its absence), gene YNL192W (yeast gene YNL192W, ratio of DNA chip fluorescence intensity to that without chemical substance): 1.1
The level of expressed mRNA in the presence of chemical substance/The level of expressed mRNA in the absence of chemical substance (yeast gene YNL333W): 1.0
The level of expressed mRNA in the presence of chemical substance/The level of expressed mRNA in the absence of chemical substance (yeast gene YNR010W): 0.8
The level of expressed mRNA in the presence of chemical substance/The level of expressed mRNA in the absence of chemical substance (yeast gene YNR069C): 1.2
The level of expressed mRNA in the presence of chemical substance/ (in its absence), gene YNR072W (yeast gene YNR072W, ratio of DNA chip fluorescence intensity to that without chemical substance): 1.0
The level of expressed mRNA in the presence of chemical substance/ (ratio to absence of chemical substance) (yeast gene YNR076W): 0.7
The level of expressed mRNA in the presence of chemical substance/The level of expressed mRNA in the absence of chemical substance (yeast gene YOL013C): 1.1
The level of expressed mRNA in the presence of chemical substance/ (ratio to absence), gene YOL096C (yeast gene YOL096C, mitochondria-located protein genes, 2 h culture with chemical): 1.2
The level of expressed mRNA in the presence of chemical substance/ (in its absence), gene YOL096C (yeast gene YOL096C, ratio of DNA chip fluorescence intensity to that without chemical substance): 1.2
The level of expressed mRNA in the presence of chemical substance/ (in its absence), gene YOL108C (yeast gene YOL108C, ratio of DNA chip fluorescence intensity to that without chemical substance): 1.0
The level of expressed mRNA in the presence of chemical substance/ (in its absence), gene YOL116W (yeast gene YOL116W, ratio of DNA chip fluorescence intensity to that without chemical substance): 0.6
The level of expressed mRNA in the presence of chemical substance/ (ratio to absence of chemical substance) (yeast gene YOL161C): 1.3
The level of expressed mRNA in the presence of chemical substance/The level of expressed mRNA in the absence of chemical substance (yeast gene YOL164W): 1.1
The level of expressed mRNA in the presence of chemical substance/ (ratio to absence of chemical substance) (yeast gene YOR008C): 0.7
The level of expressed mRNA in the presence of chemical substance/ (ratio to absence of chemical substance) (yeast gene YOR009W): 0.4
The level of expressed mRNA in the presence of chemical substance/ (ratio to absence of chemical substance) (yeast gene YOR010C): 0.5
The level of expressed mRNA in the presence of chemical substance/The level of expressed mRNA in the absence of chemical substance (yeast gene YOR036W): 1.2
The level of expressed mRNA in the presence of chemical substance/ (in its absence), gene YOR103C (yeast gene YOR103C, ratio of DNA chip fluorescence intensity to that without chemical substance): 1.2
The level of expressed mRNA in the presence of chemical substance/The level of expressed mRNA in the absence of chemical substance (yeast gene YOR117W): 2.5
The level of expressed mRNA in the presence of chemical substance/The level of expressed mRNA in the absence of chemical substance (yeast gene YOR124C): 0.9
The level of expressed mRNA in the presence of chemical substance/The level of expressed mRNA in the absence of chemical substance (yeast gene YOR132W): 0.7
The level of expressed mRNA in the presence of chemical substance/The level of expressed mRNA in the absence of chemical substance (yeast gene YOR157C): 1.3
The level of expressed mRNA in the presence of chemical substance/ (in its absence), gene YOR180C (yeast gene YOR180C, ratio of DNA chip fluorescence intensity to that without chemical substance): 0.8
The level of expressed mRNA in the presence of chemical substance/The level of expressed mRNA in the absence of chemical substance (yeast gene YOR181W): 0.8
The level of expressed mRNA in the presence of chemical substance/The level of expressed mRNA in the absence of chemical substance (yeast gene YOR185C): 1.5
The level of expressed mRNA in the presence of chemical substance/The level of expressed mRNA in the absence of chemical substance (yeast gene YOR198C): 1.5
The level of expressed mRNA in the presence of chemical substance/ (in its absence), gene YOR251C (yeast gene YOR251C, ratio of DNA chip fluorescence intensity to that without chemical substance): 0.9
The level of expressed mRNA in the presence of chemical substance/The level of expressed mRNA in the absence of chemical substance (yeast gene YOR259C): 0.8
The level of expressed mRNA in the presence of chemical substance/The level of expressed mRNA in the absence of chemical substance (yeast gene YOR261C): 0.9
The level of expressed mRNA in the presence of chemical substance/The level of expressed mRNA in the absence of chemical substance (yeast gene YOR288C): 1.4
The level of expressed mRNA in the presence of chemical substance/ (ratio to absence), gene YOR316C (yeast gene YOR316C, mitochondria-located protein genes, 2 h culture with chemical): 1.1
The level of expressed mRNA in the presence of chemical substance/ (in its absence), gene YOR348C (yeast gene YOR348C, ratio of DNA chip fluorescence intensity to that without chemical substance): 0.7
The level of expressed mRNA in the presence of chemical substance/The level of expressed mRNA in the absence of chemical substance (yeast gene YOR355W): 0.9
The level of expressed mRNA in the presence of chemical substance/ (in its absence), gene YOR363C (yeast gene YOR363C, ratio of DNA chip fluorescence intensity to that without chemical substance): 0.9
The level of expressed mRNA in the presence of chemical substance/The level of expressed mRNA in the absence of chemical substance (yeast gene YOR383C): 1.1
The level of expressed mRNA in the presence of chemical substance/ (ratio to absence), gene YPL040C (yeast gene YPL040C, mitochondria-located protein genes, 2 h culture with chemical): 0.9
The level of expressed mRNA in the presence of chemical substance/ (ratio to absence of chemical substance) (yeast gene YPL059W): 0.8
The level of expressed mRNA in the presence of chemical substance/The level of expressed mRNA in the absence of chemical substance (yeast gene YPL089C): 0.7
The level of expressed mRNA in the presence of chemical substance/The level of expressed mRNA in the absence of chemical substance (yeast gene YPL109C): 0.9
The level of expressed mRNA in the presence of chemical substance/ (ratio to absence), gene YPL134C (yeast gene YPL134C, mitochondria-located protein genes, 2 h culture with chemical): 0.8
The level of expressed mRNA in the presence of chemical substance/ (ratio to absence of chemical substance) (yeast gene YPL140C): 0.8
The level of expressed mRNA in the presence of chemical substance/ (in its absence), gene YPL148C (yeast gene YPL148C, ratio of DNA chip fluorescence intensity to that without chemical substance): 0.7
The level of expressed mRNA in the presence of chemical substance/The level of expressed mRNA in the absence of chemical substance (yeast gene YPL149W): 0.9
The level of expressed mRNA in the presence of chemical substance/The level of expressed mRNA in the absence of chemical substance (yeast gene YPL154C): 1.5
The level of expressed mRNA in the presence of chemical substance/ (ratio to absence of chemical substance) (yeast gene YPL194W): 0.9
The level of expressed mRNA in the presence of chemical substance/ (ratio to absence of chemical substance) (yeast gene YPR005C): 0.6
The level of expressed mRNA in the presence of chemical substance/The level of expressed mRNA in the absence of chemical substance (yeast gene YPR103W): 1.2
The level of expressed mRNA in the presence of chemical substance/The level of expressed mRNA in the absence of chemical substance (yeast gene YPR108W): 1.0
The level of expressed mRNA in the presence of chemical substance/ (in its absence), gene YPR165W (yeast gene YPR165W, ratio of DNA chip fluorescence intensity to that without chemical substance): 0.8
The level of expressed mRNA in the presence of chemical substance/ in its absence, gene YPR184W (energy system protein genes, 2 h culture with the chemical, ratio to control without chemical): 1.4
The level of expressed mRNA in the presence of chemical substance/ in its absence, gene YPR184W (ratio of DNA chip fluorescence intensity to that without chemical substance): 1.4
